Data from patent publication US4156724A, “N-acylamino-alpha-arylacetamido cephalosporins and antibacterial compositions and methods containing them” (Sumitomo Chemical Company, Limited, priority 1974, dated 1979).
Converted amounts (≈) assume the structure as drawn. Where two headings read alike, the source gives them in different places.

Legend:
Type in all cases: cell-based
Proteus vulgaris HX 19 = assay: Minimum Inhibitory Concentration, Proteus vulgaris HX 19; settings: Proteus vulgaris HX 19; for MIC: HX19, read-out: Minimum Inhibitory Concentration
Experimental: (§1) anti-microbial activity tests were carried out on the compounds obtained in the Examples.

[1] = test system: Staphylococcus aureus FS 289; assay: Minimum Inhibitory Concentration, Staphylococcus aureus FS 289; settings: Staphylococcus aureus FS 289, strain resistant to penicillin; for MIC: FS289, read-out: Minimum Inhibitory Concentration
Experimental: as §1
*Staphylococcus aureus FS 289: strain resistant to penicillin

[2] = test system: Enterobacter aerogeneus No. 75; assay: Minimum Inhibitory Concentration, Enterobacter aerogeneus No. 75; settings: Enterobacter aerogeneus No. 75; for MIC: read-out: Minimum Inhibitory Concentration
Experimental: as §1

[3] = test system: Staphylococcus aureus 209 P; assay: Minimum Inhibitory Concentration, Staphylococcus aureus 209 P; settings: Staphylococcus aureus 209 P; for MIC: read-out: Minimum Inhibitory Concentration
Experimental: as §1

[4] = test system: Klebsiella pneumoniae 602; assay: Minimum Inhibitory Concentration, Klebsiella pneumoniae 602; settings: for Minimum Inhibitory Concentration: Klebsiella pneumoniae 602
Experimental: as §1

Escherichia coli NIHJ = assay: Minimum Inhibitory Concentration, Escherichia coli NIHJ; settings: for MIC: read-out: Minimum Inhibitory Concentration
Experimental: as §1

Serratia No. 72 = assay: Minimum Inhibitory Concentration, Serratia No. 72
Experimental: as §1

[5] = test system: Pseudomonas aeruginosa 104; assay: Minimum Inhibitory Concentration, Pseudomonas aeruginosa 104; settings: Pseudomonas aeruginosa 104; for MIC: read-out: Minimum Inhibitory Concentration
Experimental: as §1

[6] = Klebsiella pneumoniae, 602, Klebsiella pneumoniae 602, read-out: Minimum Inhibitory Concentration

| Compound | MIC (Proteus vulgaris HX 19) [µg/mL] | MIC [1] [µg/mL] | MIC [2] [µg/mL] | MIC [3] [µg/mL] | MIC [4, 6] [µg/mL] | MIC (Escherichia coli NIHJ; Escherichia coli NIHJ) [µg/mL] | MIC (Serratia No. 72) [µg/mL] | MIC [5] [µg/mL] | Minimum Inhibitory Concentration (Proteus vulgaris HX 19) [µg/mL] | Minimum Inhibitory Concentration [1] [µg/mL] | Minimum Inhibitory Concentration [2] [µg/mL] | Minimum Inhibitory Concentration [3] [µg/mL] | Minimum Inhibitory Concentration [4] [µg/mL] | Minimum Inhibitory Concentration (Escherichia coli NIHJ; Escherichia coli NIHJ) [µg/mL] | Minimum Inhibitory Concentration (Serratia No. 72) [µg/mL] | Minimum Inhibitory Concentration [5] [µg/mL] | MIC ([4]; Klebsiella pneumoniae, 602, read-out: Minimum Inhibitory Concentration) [µg/mL] | MIC (Escherichia coli NIHJ; Escherichia coli) [µg/mL] |
| --- | --- | --- | --- | --- | --- | --- | --- | --- | --- | --- | --- | --- | --- | --- | --- | --- | --- | --- |
| Cc1nnc(SCC2=C(C(=O)O)N3C(=O)[C@@H](NC(=O)[C@H](NC(=O)c4cnccc4O)c4ccc(NC(N)=O)cc4)[C@H]3SC2)s1 [Example 12, 7-[D-α-(4-Hydroxypyridine-3-carboxyamido)-α-(p-ureidophenyl)acetamido]-3-(2-methyl-1,3,4-thiadiazol-5-yl)thiomethyl-3-cephem-4-carboxylic Acid] | 0.1 (≈ 0.152 µM) | 6.25 (≈ 9.52 µM) | 12.5 (≈ 19 µM) | 0.39 (≈ 0.594 µM) | 6.25 (≈ 9.52 µM) | 6.25 (≈ 9.52 µM) | 50 (≈ 76.1 µM) | 6.25 (≈ 9.52 µM) | – | – | – | – | – | – | – | – | – | – |
| CC(=O)OCC1=C(C(=O)[O-])N2C(=O)C(NC(=O)C(NC(=O)c3cnc4cccnc4c3O)c3cc(Cl)c(O)c(Cl)c3)C2SC1.[Na+] (stereo not drawn) [Example 144] | – | – | – | – | – | – | – | – | 1.56 | 12.5 | 12.5 | 3.13 | 6.25 | 6.25 | 100 | 6.25 | – | – |
| COc1ccc2ncc(C(=O)NC(C(=O)NC3C(=O)N4C(C(=O)O)=C(CSc5nnnn5C)CSC34)c3cccc(N)c3)c(O)c2n1 (stereo not drawn) [Example 67] | 0.1 (≈ 0.147 µM) | 3.13 (≈ 4.61 µM) | 3.13 (≈ 4.61 µM) | 0.78 (≈ 1.15 µM) | 3.13 (≈ 4.61 µM) | 1.56 (≈ 2.3 µM) | 12.5 (≈ 18.4 µM) | 3.13 (≈ 4.61 µM) | – | – | – | – | – | – | – | – | – | – |
| O=C(O)C1=C(CSc2cnn[nH]2)CSC2C(NC(=O)C(NC(=O)c3cnc4cccnc4c3O)c3cccc(O)c3)C(=O)N12 (stereo not drawn) [Example 169] | 0.1 (≈ 0.158 µM) | 6.25 (≈ 9.85 µM) | 3.13 (≈ 4.93 µM) | 0.78 (≈ 1.23 µM) | 1.56 (≈ 2.46 µM) | 3.13 (≈ 4.93 µM) | 25 (≈ 39.4 µM) | 3.13 (≈ 4.93 µM) | – | – | – | – | – | – | – | – | – | – |
| Cc1nnc(SCC2=C(C(=O)O)N3C(=O)C(NC(=O)C(NC(=O)c4cnc5ccc(N(C)C)nc5c4O)c4ccc(CO)cc4)C3SC2)s1 (stereo not drawn) [Example 107] | 0.1 (≈ 0.138 µM) | 6.25 (≈ 8.65 µM) | 6.25 (≈ 8.65 µM) | 1.56 (≈ 2.16 µM) | 1.56 (≈ 2.16 µM) | 3.13 (≈ 4.33 µM) | 12.5 (≈ 17.3 µM) | 6.25 (≈ 8.65 µM) | – | – | – | – | – | – | – | – | – | – |
| COc1ccc2ncc(C(=O)N[C@@H](C(=O)N[C@@H]3C(=O)N4C(C(=O)O)=C(COC(C)=O)CS[C@H]34)c3cccc(NC(N)=O)c3)c(O)c2n1 [Example 33] | 0.78 (≈ 1.17 µM) | 6.78 (≈ 10.2 µM) | 12.5 (≈ 18.8 µM) | 0.78 (≈ 1.17 µM) | 3.13 (≈ 4.7 µM) | 3.13 (≈ 4.7 µM) | 50 (≈ 75.1 µM) | 6.25 (≈ 9.39 µM) | – | – | – | – | – | – | – | – | – | – |
| CN(C)c1ccc2ncc(C(=O)NC(C(=O)NC3C(=O)N4C(C(=O)[O-])=C(CSc5nnnn5C)CSC34)c3ccc(NC(N)=O)cc3)c(O)c2n1.[Na+] (stereo not drawn) [Example 29] | – | – | – | – | – | – | – | – | 0.2 | 6.25 | 3.13 | 0.78 | 1.56 | 1.56 | 12.5 | 3.13 | – | – |
| CC(=O)OCC1=C(C(=O)O)N2C(=O)C(NC(=O)[C@H](NC(=O)c3cnc4cccnc4c3O)c3ccc(O)cc3)C2SC1 (stereo partly drawn) [Example 120, 7-[D-α-(4-Hydroxy-1,5-naphthyridine-3-carbonamido)-α-hydroxyphenylacetamido]cephalosporanic Acid] | 0.39 (≈ 0.657 µM) | 6.25 (≈ 10.5 µM) | 6.25 (≈ 10.5 µM) | 0.78 (≈ 1.31 µM) | – | – | 50 (≈ 84.2 µM) | 6.25 (≈ 10.5 µM) | – | – | – | – | – | – | – | – | 1.56 (≈ 2.63 µM) | 3.13 (≈ 5.27 µM) |

Second part, led by results:

| MIC (Proteus vulgaris HX 19) [µg/mL] | MIC [1] [µg/mL] | MIC [2] [µg/mL] | MIC [3] [µg/mL] | MIC [4, 6] [µg/mL] | MIC (Escherichia coli NIHJ; Escherichia coli NIHJ) [µg/mL] | MIC (Serratia No. 72) [µg/mL] | MIC [5] [µg/mL] | Compound | Minimum Inhibitory Concentration (Proteus vulgaris HX 19) [µg/mL] | Minimum Inhibitory Concentration [1] [µg/mL] | Minimum Inhibitory Concentration [2] [µg/mL] | Minimum Inhibitory Concentration [3] [µg/mL] | Minimum Inhibitory Concentration [4] [µg/mL] | Minimum Inhibitory Concentration (Escherichia coli NIHJ; Escherichia coli NIHJ) [µg/mL] | Minimum Inhibitory Concentration (Serratia No. 72) [µg/mL] | Minimum Inhibitory Concentration [5] [µg/mL] | MIC ([4]; Klebsiella pneumoniae, 602, read-out: Minimum Inhibitory Concentration) [µg/mL] | MIC (Escherichia coli NIHJ; Escherichia coli) [µg/mL] |
| --- | --- | --- | --- | --- | --- | --- | --- | --- | --- | --- | --- | --- | --- | --- | --- | --- | --- | --- |
| 12.5 (≈ 30.8 µM) | 12.5 (≈ 30.8 µM) | 50 (≈ 123 µM) | 1.56 (≈ 3.85 µM) | 3.13 (≈ 7.72 µM) | 12.5 (≈ 30.8 µM) | > 200 | > 200 | CC(=O)OCC1=C(C(=O)O)N2C(=O)[C@@H](NC(=O)[C@H](N)c3ccccc3)[C@H]2SC1 [CEG, reference compound] | – | – | – | – | – | – | – | – | – | – |
| 0.39 (≈ 0.586 µM) | 12.5 (≈ 18.8 µM) | 6.25 (≈ 9.39 µM) | 0.78 (≈ 1.17 µM) | 3.13 (≈ 4.7 µM) | 3.13 (≈ 4.7 µM) | 12.5 (≈ 18.8 µM) | 3.13 (≈ 4.7 µM) | Cn1nnnc1SCC1=C(C(=O)O)N2C(=O)C(NC(=O)C(NC(=O)c3cnc4c(O)ccnc4c3O)c3ccc(O)cc3)C2SC1 (stereo not drawn) [Example 175] | – | – | – | – | – | – | – | – | – | – |
| 0.78 (≈ 1.23 µM) | 6.25 (≈ 9.83 µM) | 6.25 (≈ 9.83 µM) | 0.78 (≈ 1.23 µM) | 3.13 (≈ 4.92 µM) | 3.13 (≈ 4.92 µM) | 50 (≈ 78.7 µM) | 6.25 (≈ 9.83 µM) | CC(=O)OCC1=C(C(=O)O)N2C(=O)[C@@H](NC(=O)[C@H](NC(=O)c3cnc4cccnc4c3O)c3ccc(NC(N)=O)cc3)[C@H]2SC1 [Example 7] | – | – | – | – | – | – | – | – | – | – |
| 0.1 (≈ 0.153 µM) | 3.13 (≈ 4.8 µM) | 3.13 (≈ 4.8 µM) | 0.78 (≈ 1.2 µM) | 1.56 (≈ 2.39 µM) | 1.56 (≈ 2.39 µM) | 12.5 (≈ 19.2 µM) | 3.13 (≈ 4.8 µM) | O=C(O)C1=C(CSc2nncs2)CSC2C(NC(=O)[C@H](NC(=O)c3cnc4cccnc4c3O)c3ccc(O)cc3)C(=O)N12 (stereo partly drawn) [Example 130] | – | – | – | – | – | – | – | – | – | – |
